# From patent US20230167467A1, “METHODS AND COMPOSITIONS FOR THE PRODUCTION OF ISOBUTENE” (University of Alaska Anchorage, priority 2020, published 2023)
# System: Engineered strains of E. coli
# Format: cell-based
# [1] = after solvent exposure, vs positive control
smiles,measurement,setting,value
CCCCCC [hexane],"expression of acid resistance genes (gad, adi families)",,downregulated
same,"expression of chaperone proteins groLS, spy, and dnaJK",,highly upregulated
same,expression of dihydroxyacetone kinase genes dhaKLM,,upregulated
same,expression of flagellar protein synthesis and assembly genes,,downregulated
same,expression of gadE and adiY,,significantly downregulated
same,expression of galactitol metabolism genes gatABD,,upregulated
same,expression of glpABC (glycerol to glycerone phosphate),,upregulated
same,expression of heat shock proteins and chaperones hslJORUV,,strongest increases
same,expression of ibpAB and clpAB (protein protection and repair),,strongest increases
same,expression of marABC (multiple antibiotic resistance),,upregulated
same,expression of nitrate reductase genes narGHJKP,,upregulated
same,expression of phage shock genes pspABCDE,,highly upregulated
same,change in expression of gene adiA,[1],−4.64 ± 0.88
same,change in expression of gene adiC,[1],−4.53 ± 1.04
same,change in expression of gene adiY,[1],−3.19 ± 0.66
same,change in expression of gene bhsA,[1],3.01 ± 0.60
same,change in expression of gene bssR,[1],1.50 ± 0.44
same,change in expression of gene bssS,[1],5.47 ± 0.84
same,change in expression of gene clpA,[1],2.49 ± 0.63
same,change in expression of gene clpB,[1],5.02 ± 0.69
same,change in expression of gene clpP,[1],1.52 ± 0.59
same,change in expression of gene coaA,[1],−2.34 ± 0.88
same,change in expression of gene coaD,[1],0.57 ± 0.90
same,change in expression of gene cspA,[1],−4.08 ± 0.57
same,change in expression of gene cspB,[1],−4.25 ± 1.30
same,change in expression of gene cspC,[1],−2.22 ± 0.90
same,change in expression of gene cspD,[1],2.07 ± 0.57
same,change in expression of gene cspE,[1],−0.53 ± 0.63
same,change in expression of gene cspF,[1],−3.67 ± 1.04
same,change in expression of gene dhaK,[1],3.83 ± 0.58
same,change in expression of gene dhaL,[1],2.77 ± 0.62
same,change in expression of gene dnaJ,[1],4.46 ± 0.69
same,change in expression of gene dnaK,[1],4.31 ± 0.66
same,change in expression of gene fabA,[1],−0.96 ± 0.75
same,change in expression of gene fabB,[1],2.15 ± 0.66
same,change in expression of gene fabD,[1],−0.89 ± 0.52
same,change in expression of gene flgA,[1],−2.91 ± 1.55
same,change in expression of gene flgB,[1],−6.86 ± 1.62
same,change in expression of gene flgC,[1],−7.12 ± 2.02
same,change in expression of gene flgD,[1],−6.97 ± 1.94
same,change in expression of gene flgE,[1],−5.83 ± 1.20
same,change in expression of gene flgF,[1],−5.93 ± 1.66
same,change in expression of gene flgG,[1],−5.59 ± 1.51
same,change in expression of gene flgH,[1],−4.58 ± 1.75
same,change in expression of gene gabD,[1],−1.81 ± 1.34
same,change in expression of gene gabP,[1],−3.20 ± 1.33
same,change in expression of gene gabT,[1],−1.73 ± 1.30
same,change in expression of gene gadA,[1],−1.47 ± 0.68
same,change in expression of gene gadB,[1],−0.69 ± 0.80
same,change in expression of gene gadC,[1],−0.25 ± 0.80
same,change in expression of gene gadE,[1],−2.22 ± 0.60
same,change in expression of gene gadW,[1],−4.92 ± 0.97
same,change in expression of gene gadX,[1],−2.95 ± 0.57
same,change in expression of gene gadY,[1],−5.22 ± 0.81
same,change in expression of gene glpA,[1],7.69 ± 0.87
same,change in expression of gene glpB,[1],5.40 ± 0.63
same,change in expression of gene glpC,[1],6.04 ± 0.79
same,change in expression of gene groL,[1],4.16 ± 0.57
same,change in expression of gene groS,[1],4.25 ± 0.50
same,change in expression of gene hchA,[1],0.77 ± 0.60
same,change in expression of gene hslJ,[1],2.29 ± 0.65
same,change in expression of gene hslO,[1],3.04 ± 0.64
same,change in expression of gene hslR,[1],3.21 ± 0.65
same,change in expression of gene hslU,[1],3.61 ± 0.55
same,change in expression of gene hslV,[1],2.94 ± 0.61
same,change in expression of gene ibpA,[1],7.63 ± 1.21
same,change in expression of gene ibpB,[1],8.41 ± 1.50
same,change in expression of gene lhgO,[1],−1.20 ± 1.67
same,change in expression of gene lipA,[1],0.42 ± 0.59
same,change in expression of gene lipB,[1],−0.05 ± 0.63
same,change in expression of gene narG,[1],4.03 ± 0.65
same,change in expression of gene narH,[1],3.23 ± 0.61
same,change in expression of gene narI,[1],2.02 ± 0.92
same,change in expression of gene narJ,[1],2.26 ± 0.68
same,change in expression of gene narK,[1],2.20 ± 0.84
same,change in expression of gene potA,[1],−2.87 ± 0.80
same,change in expression of gene potB,[1],−2.22 ± 1.29
same,change in expression of gene potC,[1],−1.06 ± 1.18
same,change in expression of gene pspA,[1],8.97 ± 0.55
same,change in expression of gene pspB,[1],7.11 ± 0.68
same,change in expression of gene rpoA,[1],0.76 ± 0.44
same,change in expression of gene rpoB,[1],0.54 ± 0.40
same,change in expression of gene rpoC,[1],1.02 ± 0.39
same,change in expression of gene rpoD,[1],3.14 ± 0.70
same,change in expression of gene rpoE,[1],−2.64 ± 0.62
same,change in expression of gene rpoH,[1],0.31 ± 0.52
same,change in expression of gene rpoN,[1],−1.24 ± 0.49
same,change in expression of gene rpoS,[1],0.42 ± 0.47
same,change in expression of gene rpoZ,[1],−0.98 ± 0.53
same,change in expression of gene spy,[1],4.12 ± 0.87
same,change in expression of gene tatA,[1],−0.89 ± 0.51
same,change in expression of gene tatB,[1],−0.66 ± 0.58
same,change in expression of gene tatC,[1],−1.03 ± 1.08
same,change in expression of gene tatD,[1],−2.65 ± 1.13
same,change in expression of gene tatE,[1],0.78 ± 0.63
same,number of genes with significant changes in expression,"vs control, Bon Ferroni corrected p-value<0.05",535 genes
